# Patent US20180105561A1, “ANALOGS OF SODIUM CHANNEL PEPTIDE TOXIN” (priority 2010, published 2018)
# Where a SMILES comes first, the peptide text is derived from it. Bridges are numbered along the chain shown (N, C = ends).
# Columns and labels:
# human Nav1.7 = human Nav1.7 (Homo sapiens, UniProt Q15858); type: cell-based; conditions: Table 3, natural toxins
# Nav1.2 (rBIIa) = assay: Sodium channel-blocking assay, Nav1.2 counter-screen; type: cell-based, rat; conditions: Table 3, natural toxins
# human Nav1.7, sequence (Q15858 other isoform, or with tags, fused parts or gaps): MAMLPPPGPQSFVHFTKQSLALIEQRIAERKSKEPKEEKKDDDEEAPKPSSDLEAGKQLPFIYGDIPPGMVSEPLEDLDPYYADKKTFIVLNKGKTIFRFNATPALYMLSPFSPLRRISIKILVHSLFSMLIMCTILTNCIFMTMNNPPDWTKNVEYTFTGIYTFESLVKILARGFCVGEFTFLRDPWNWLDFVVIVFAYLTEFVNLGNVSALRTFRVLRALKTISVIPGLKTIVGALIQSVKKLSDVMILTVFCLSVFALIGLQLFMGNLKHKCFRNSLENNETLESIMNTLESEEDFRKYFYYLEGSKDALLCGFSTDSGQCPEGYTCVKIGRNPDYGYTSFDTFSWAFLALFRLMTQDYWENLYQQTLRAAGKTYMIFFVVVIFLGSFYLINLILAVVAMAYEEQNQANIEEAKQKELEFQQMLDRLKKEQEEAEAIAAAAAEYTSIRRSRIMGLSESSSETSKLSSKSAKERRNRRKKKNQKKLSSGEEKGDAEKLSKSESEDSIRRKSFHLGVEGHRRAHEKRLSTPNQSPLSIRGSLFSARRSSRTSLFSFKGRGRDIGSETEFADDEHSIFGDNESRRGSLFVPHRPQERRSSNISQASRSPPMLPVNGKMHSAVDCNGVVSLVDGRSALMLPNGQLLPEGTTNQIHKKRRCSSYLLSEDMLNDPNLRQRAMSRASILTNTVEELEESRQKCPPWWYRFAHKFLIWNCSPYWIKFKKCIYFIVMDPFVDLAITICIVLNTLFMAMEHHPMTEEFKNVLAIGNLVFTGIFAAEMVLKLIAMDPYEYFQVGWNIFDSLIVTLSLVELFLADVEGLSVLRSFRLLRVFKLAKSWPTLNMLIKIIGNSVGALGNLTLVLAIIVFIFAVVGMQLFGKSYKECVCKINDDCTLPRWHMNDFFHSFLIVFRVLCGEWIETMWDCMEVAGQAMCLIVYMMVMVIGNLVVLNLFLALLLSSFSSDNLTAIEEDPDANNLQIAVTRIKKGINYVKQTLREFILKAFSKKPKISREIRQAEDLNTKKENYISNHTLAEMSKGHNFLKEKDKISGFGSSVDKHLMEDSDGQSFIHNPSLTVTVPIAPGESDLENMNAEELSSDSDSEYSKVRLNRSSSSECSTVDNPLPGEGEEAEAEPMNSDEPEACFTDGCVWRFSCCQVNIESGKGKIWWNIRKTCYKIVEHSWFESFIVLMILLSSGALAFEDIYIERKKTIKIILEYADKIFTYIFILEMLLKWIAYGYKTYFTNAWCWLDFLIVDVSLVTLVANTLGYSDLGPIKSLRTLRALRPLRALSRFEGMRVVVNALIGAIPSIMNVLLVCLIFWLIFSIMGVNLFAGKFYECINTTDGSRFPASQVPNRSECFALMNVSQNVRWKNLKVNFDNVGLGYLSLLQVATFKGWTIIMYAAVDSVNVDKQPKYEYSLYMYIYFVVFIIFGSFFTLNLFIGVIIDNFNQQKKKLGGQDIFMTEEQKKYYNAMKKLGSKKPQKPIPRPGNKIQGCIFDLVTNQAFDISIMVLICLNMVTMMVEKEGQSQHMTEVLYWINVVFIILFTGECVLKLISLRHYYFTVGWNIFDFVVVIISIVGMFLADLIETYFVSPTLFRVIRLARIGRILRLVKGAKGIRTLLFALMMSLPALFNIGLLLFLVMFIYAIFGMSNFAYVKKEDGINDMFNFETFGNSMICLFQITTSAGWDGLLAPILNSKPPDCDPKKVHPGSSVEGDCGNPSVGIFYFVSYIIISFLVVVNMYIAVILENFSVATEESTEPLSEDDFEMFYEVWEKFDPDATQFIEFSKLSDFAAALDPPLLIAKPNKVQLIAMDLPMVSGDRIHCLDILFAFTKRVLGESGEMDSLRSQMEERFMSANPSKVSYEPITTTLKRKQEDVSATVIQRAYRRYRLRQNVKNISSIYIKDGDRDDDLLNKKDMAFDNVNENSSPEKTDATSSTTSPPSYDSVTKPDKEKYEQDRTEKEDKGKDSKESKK
compound,measurement,setting,value
"CC[C@H](C)[C@H](NC(=O)[C@H](CCCCN)NC(=O)[C@H](CCCCN)NC(=O)[C@H](CCCCN)NC(=O)[C@@H]1CSSC[C@@H]2NC(=O)[C@H](CCCCN)NC(=O)[C@H](CCCNC(=N)N)NC(=O)[C@H](CCC(=O)O)NC(=O)[C@H](CCC(=O)O)NC(=O)[C@H](CC(=O)O)NC(=O)[C@@H]3CSSC[C@H](NC(=O)[C@H](C(C)C)NC(=O)[C@H](CC(C)C)NC(=O)CNC(=O)[C@H](CCC(=O)O)NC(=O)[C@H](CSSC[C@H](NC(=O)[C@@H](N)Cc4ccc(O)cc4)C(=O)N[C@@H](CCC(N)=O)C(=O)N[C@@H](CCCCN)C(=O)N[C@@H](Cc4c[nH]c5ccccc45)C(=O)N[C@@H](CCSC)C(=O)N[C@@H](Cc4c[nH]c5ccccc45)C(=O)N[C@@H]([C@@H](C)O)C(=O)N3)NC2=O)C(=O)N[C@@H](CCCNC(=N)N)C(=O)N[C@@H](CC(C)C)C(=O)N[C@@H](Cc2c[nH]c3ccccc23)C(=O)N1)C(=O)N[C@@H](CCC(=O)O)C(=O)N[C@@H](Cc1c[nH]c2ccccc12)C(=O)O [GsAF II] (H-YCQKWMWTCDEERKCCEGLVCRLWCKKKIEW-OH; disulfide 2-16, 9-21, 15-25)",IC50,human Nav1.7,70 ± 10 nM
same,IC50,Nav1.2 (rBIIa),410 ± 20 nM
